The values that follow come from patent US4874600A, “No-carrier-added [1^11 c]putrescine” (The United States of America as Represented by the United …, priority 1986, dated 1989).

Data set [1] in a line: in vivo. To be noted: mouse. How it is done: Male Swiss albino mice (BNL strain, 20-32 g) were used in this study. No-carrier-added [1-^11 C]putrescine (0.05-0.20 μCi/mouse of specific activity greater than 1.4 Ci/μmol; 36-140 pmol/mouse) was injected by tail vein into mice and the animals were killed by cervical dislocation at the desired time interval (5, 30 and 60 minutes). The various organs were rapidly removed, blotted free of blood and placed in preweighed counting vials and the vials were sealed. Tissue samples as well as injection standards were counted in a Packard automated sodium iodide well counter. Both percent injected dose per gram of tissue and percent injected dose per organ were determined from the decay corrected activity.

For data set [2], the system named is transplanted rat glioma. To be noted: Volkow et al. 1983, cited from earlier work.

For orientation: tissue uptake means the share of the injected amount in each gram of the tissue. A high value points to strong accumulation. Regarding `NCCC[11CH2]N` [no-carrier-added [1-^11 C]putrescine, [1-^11 C]putrescine], in data set [1], the “accumulation of activity in normal brain compared with other tissues (in words)” value is “less in the normal brain than for other tissues”; the “tissues of main uptake (in words)” value is “taken up by the liver, kidneys, and small intestine”. In data set [1] (iv), this molecule registered a tissue uptake at 5 min of 1.37 ± 0.18 %ID/g, a tissue uptake at 0.5 h of 0.82 ± 0.11 %ID/g and a tissue uptake at 1 h of 0.76 ± 0.46 %ID/g. For the same molecule, in data set [1] (iv, 5 min), the “Tissue distribution, Brain” value stood at 0.12 ± 0.01 % Dose/Organ; the “Tissue distribution, Heart” value was 0.19 ± 0.04 % Dose/Organ; the “Tissue distribution, Kidney” value amounted to 10.5 ± 2.0 % Dose/Organ; the “Tissue distribution, Liver” value was determined as 5.96 ± 1.2 % Dose/Organ. For the same molecule, in data set [1] (iv, 5 min), the “Tissue distribution, Lungs” value is on record as 0.57 ± 0.08 % Dose/Organ; the “Tissue distribution, Small Intestine” value came out at 13.7 ± 5.0 % Dose/Organ; the “Tissue distribution, Spleen” value came out at 0.57 ± 0.35 % Dose/Organ. Also, in data set [1] (iv, 30 min), the “Tissue distribution, Brain” value was determined as 0.15 ± 0.01 % Dose/Organ; the “Tissue distribution, Heart” value was determined as 0.15 ± 0.02 % Dose/Organ; the “Tissue distribution, Kidney” value was 2.63 ± 0.36 % Dose/Organ; the “Tissue distribution, Liver” value stood at 4.85 ± 0.75 % Dose/Organ. In addition, in data set [1] (iv, 30 min), the “Tissue distribution, Lungs” value turned out to be 0.48 ± 0.08 % Dose/Organ; the “Tissue distribution, Small Intestine” value was determined as 7.61 ± 2.00 % Dose/Organ; the “Tissue distribution, Spleen” value was 0.56 ± 0.25 % Dose/Organ. Also, in data set [1] (iv, 60 min), the “Tissue distribution, Brain” value worked out at 0.13 ± 0.01 % Dose/Organ; the “Tissue distribution, Heart” value is 0.12 ± 0.01 % Dose/Organ; the “Tissue distribution, Kidney” value worked out at 1.27 ± 0.21 % Dose/Organ; the “Tissue distribution, Liver” value is 3.70 ± 0.50 % Dose/Organ. In addition, in data set [1] (iv, 60 min), the “Tissue distribution, Lungs” value was found to be 0.43 ± 0.08 % Dose/Organ; the “Tissue distribution, Small Intestine” value is listed as 4.40 ± 1.66 % Dose/Organ; the “Tissue distribution, Spleen” value came out at 0.48 ± 0.16 % Dose/Organ.

As to `NCCCCN` [putrescine], the “in vivo uptake into transplanted rat glioma relative to normal brain tissue” value in data set [2] (transplanted rat glioma vs normal brain tissue) is 35 times greater. Moreover, the “metabolism to spermine by the tumor (in words)” value in data set [2] (transplanted rat glioma, in contrast to adjacent normal brain tissue) is given as “rapid”.
